Consider two molecules from US8598145B2, “Mitochondrially delivered anti-cancer compounds” (priority 2008, dated 2013).

The test system of one data set is H9c2. The data set is described as follows: MTT viability assay (IC50). It counts as cell-based, rat. The conditions noted are these: H9c2, ~60% confluency. The text has this:
(§1) The following cell lines used in this study were obtained from ATCC, unless specified otherwise: Human T lymphoma cells Jurkat, human mesothelioma cells Meso-I, MM-BI, Ist-Mes, Ist-Mes-2 (Pass, H. I. et al. Characteristics of nine newly derived mesothelioma cell lines. Ann. Thorac. Surg. 59, 835-844 (1995)), human breast cancer cells MCF-7 (erbB2-low) and MDA-MB-453 (erbB2-high), human colorectal cells HCT-116, human hepatocarcinoma cells Huh-7, mouse mesothelioma cells AE17 (Jackaman, C. et al. IL-2 intratumoral immunotherapy enhances CD8+ T cells that mediate destruction of tumor cells and tumor-associated vasculature: a novel mechanism for IL-2. J. Immunol. 171, […] (2003), human non-malignant mesothelial cells Met-5A, […] (Claycomb, W. C. et al. HL-1 cells: a cardiac muscle cell line that contracts and retains phenotypic characteristics of the adult cardiomyocyte. Proc. Natl. Acad. Sci. USA 95, 2979-2984 […]) and H9c2, and the human endothelial-like cells EAhy926 (Edgell, C. J., McDonald, C. C. & Graham, J. B. Permanent cell line expressing human factor VIII-related antigen established by hybridization. Proc. Natl. Acad. Sci. USA 80, 3734-3737 (1983)). Jurkat cells were grown in the RPMI medium while DMEM was used for other malignant cell lines and for Met-5A cells, supplemented with 10% FCS and antibiotics. HL-1 cells, maintained in fibronectin/gelatine-coated dishes, were grown in the Claycomb medium supplemented with noradrenalin (Claycomb, W. C. et al. HL-1 cells: a cardiac muscle cell line that contracts and retains phenotypic characteristics of the adult cardiomyocyte. Proc. Natl. Acad. Sci. USA 95, 2979-2984 […]), EAhy926 cells were grown in complete DMEM supplemented with HAT (Edgell, C. J., McDonald, C. C. & Graham, J. B. Permanent cell line expressing human factor VIII-related antigen established by hybridization. Proc. Natl. Acad. Sci. USA 80, 3734-3737 (1983)). Cells deficient in mtDNA (ρ^0 phenotype) were prepared as detailed in Weber, T. et al., (Mitochondria play a central role in apoptosis induced by α-tocopheryl succinate, an agent with anticancer activity. Comparison with receptor-mediated pro-apoptotic signaling. Biochemistry 42, 4277-4291 (2003)). Acquisition of the ρ^0 phenotype was confirmed by lack of expression by the cells of the mtDNA-encoded cytochrome c oxidase subunit II (COXII not shown). Chinese hamster lung fibroblasts deficient in complex I (B10 cells) (See, B. B. et al. Molecular remedy of complex I defects: rotenone-insensitive internal NADH-quinone oxidoreductase of Saccharomyces cerevisiae mitochondria restores the NADH oxidase activity of complex I-deficient mammalian cells. Proc. Natl. Acad. Sci. USA 95, 9167-9171 (1998)) and complex II (CybL^−/−; B9 cells) (Oostveen, F. G., Au, H. C., Meijer, P. J. & Scheffler, I. E. A Chinese hamster mutant cell line with a defect in the integral membrane protein CII-3 of complex II of the mitochondrial electron transport chain. J. Biol. Chem. 270: 26104-26108 (1995)) as well as the parental cells (B1 cells) (Oostveen, F. G., Au, H. C., Meijer, P. J. & Scheffler, I. E. A Chinese hamster mutant cell line with a defect in the integral membrane protein CII-3 of complex II of the mitochondrial electron transport chain. J. Biol. Chem. 270: 26104-26108 (1995)) were grown in DMEM with 10% FCS, antibiotics, 10 mg/ml glucose and non-essential aminoacids.
(§2) Toxicity of α-TOS, VE11S (“VES”), MitoVE3S, MitoVE5S, MitoVE7S, MitoVE9S, MitoVE11S (“MitoVES”), MitoVE11AE (“MitoVEAE”), MitoVE11F (“MitoVEF”), MitoVE11M (“MitoVEM”), and VES4TPP towards cancer cells was assessed on the basis of IC50, as detailed in Turanek, J., et al. ((2008). Liposomal formulation of vitamin E analogs as an efficient and selective anti-cancer treatment. Clin. Cancer Res. (submitted)). […]

The test system of the next data set is HL-1. The data set is described as follows: MTT viability assay (IC50). It counts as cell-based, rat. The conditions noted are these: HL-1, ~60% confluency.
Source text: as §1, §2
In general terms: Tetrazolium assays rely on reduction of a dye to a coloured formazan, in cell work by metabolically active cells.

A further data set deals with EAhy926 cells. The data set is described as follows: Apoptosis in proliferating and arrested endothelial cells (FIG. 6). The conditions noted are these: EAhy926 at ~50% or 100% confluency. The data set is classed as cell-based, human. The procedure:
Parental EAhy926 cells were seeded in 24-well plate so that they would acquire after an overnight recuperation ˜50% or 100% confluency, while their ρ^0 counterparts were seeded at 50% confluency. The proliferating and confluent cells were then exposed to MitoVES at concentrations and for times shown, and assessed for apoptosis level by the Annexin V-binding method (A) and for ROS accumulation using the fluorescent probe DHE (B).
as §2

The next data set concerns AE-17. The data set is described as follows: MTT viability assay (IC50). It counts as cell-based, mouse. The conditions noted are these: AE-17, ~60% confluency.
Source text: The following cell lines used in this study were obtained from ATCC, unless specified otherwise: Human T lymphoma cells Jurkat, human mesothelioma cells Meso-I, MM-BI, Ist-Mes, Ist-Mes-2 (Pass, H. I. et al. Characteristics of nine newly derived mesothelioma cell lines. Ann. Thorac. Surg. 59, 835-844 (1995)), human breast cancer cells MCF-7 (erbB2-low) and MDA-MB-453 (erbB2-high), human colorectal cells HCT-116, human hepatocarcinoma cells Huh-7, mouse mesothelioma cells AE17 (Jackaman, C. et al. IL-2 intratumoral immunotherapy enhances CD8+ T cells that mediate destruction of tumor cells and tumor-associated vasculature: a novel mechanism for IL-2. J. Immunol. […]
as §2

The test system of data set [1] is Ras-transformed B9 cells with a defective Complex II. The data set is described as follows: Apoptosis in Ras-transformed B1 and B9 cells (FIG. 4C). The data set is classed as cell-based, Chinese hamster. The procedure:
4C—After 24 h of treatment with Complex II targeting drugs TTFA or MitoVES, Ras transformed B1 and B9 cells were assessed for apoptosis using the Annexin V binding method.
as §1, with “Chinese hamster lung fibroblasts deficient in complex I (B10 cells) (See, B. B. et al. Molecular remedy of complex I defects: rotenone-insensitive internal NADH-quinone oxidoreductase of Saccharomyces cerevisiae mitochondria restores the NADH oxidase activity of complex I-deficient mammalian cells. Proc. Natl. Acad. Sci. USA 95, 9167-9171 (1998)) and complex II (CybL^−/−; B9 cells) (Oostveen, F. G., Au, H. C., Meijer, P. J. & Scheffler, I. E. A Chinese hamster mutant cell line with a defect in the integral membrane protein CII-3 of complex II of the mitochondrial electron transport chain. J. Biol. Chem. 270: 26104-26108 (1995)) as well as the parental cells (B1 cells) (Oostveen, F. G., Au, H. C., Meijer, P. J. & Scheffler, I. E. A Chinese hamster mutant cell line with a defect in the integral membrane protein CII-3 of complex II of the mitochondrial electron transport chain. J. Biol. Chem. 270: 26104-26108 (1995)) were grown in DMEM with 10% FCS, antibiotics, 10 mg/ml glucose and non-essential aminoacids.” left out

The conditions of data set [2]: pH 6.2 versus pH 7.4 of the medium; cited from earlier work.

Usually IC50 stands for the concentration at which inhibition is half-maximal. A higher IC50 goes with weaker potency. With `Cc1c(C)c2c(c(C)c1OC(=O)CCC(=O)[O-])CCC(C)(CCCCCCCCCCC[P+](c1ccccc1)(c1ccccc1)c1ccccc1)O2` (stereo not shown) [MitoVE11S], the IC50 in the data set on H9c2 turned out to be 54 ± 8 µM; in the data set on HL-1, 48 ± 6 µM; in the data set on AE-17 it was 3.1 ± 0.7 µM. Besides, in the data set on EAhy926 cells, the “apoptosis in proliferating versus arrested endothelial cells” value was “causes apoptosis in proliferating but not arrested endothelial cells”. Moreover, the “sensitivity to apoptosis of Ras-transformed B9 cells compared to Ras-transformed B1 cells” value in data set [1] (24 h treatment, Annexin V binding) is given as “much less sensitive”. Further, the “sensitivity after reconstitution of Complex II function (human SDHC) in Ras-transformed B9 cells” value in data set [1] (B9 cells transfected to express human SDHC) was “restored the sensitivity”.

As to `Cc1c(C)c2c(c(C)c1OC(=O)CCC(=O)O)CC[C@@](C)(CCC[C@H](C)CCC[C@H](C)CCCC(C)C)O2` [α-TOS, α-tocopheryl succinate, reference compound], the results for the IC50 with H9c2, in the data set with HL-1 and in the data set on AE-17 were more than 100 µM, more than 100 µM and 33 ± 5 µM, respectively. For the same molecule, the “uptake of the compound at lower pH” value in data set [2] is given as “about twice as much”.
